# Species: Rattus norvegicus
# Test: Open TG-GATES - Regimen: Single
# Type: toxicity, organism-based, Sprague-Dawley
# Parameters: regimen Single, gender Male, age 6 weeks
# Settings: in vivo, po, 100 mg/kg, route gavage, dose level High; for APTT / Bas / Eos / Fbg / Hb / Ht / Lym / MCH / MCHC / MCV / Mono / Neu / PT / Plat / RBC / Ret / WBC: tissue Blood; for KIDNEY_L / KIDNEY_R / KIDNEY_TOTAL: tissue Kidney; for LIVER: tissue Liver; for A/G / ALP / ALT / AST / BUN / CRE / Ca / Cl / DBIL / GLC / IP / K / LDH / Na / PL / RALB / TBIL / TC / TG / TP / gamma-GTP: tissue Plasma
structure (smiles),measurement,setting,value
CN(C)CCN(Cc1cccs1)c1ccccn1,TERMINAL_BW,3 h,184.9 g
same,APTT,3 h,21.5 s
same,Bas,3 h,0%
same,Eos,3 h,0.8%
same,Fbg,3 h,290.4 mg/dL
same,Hb,3 h,13.2 g/dL
same,Ht,3 h,40.2%
same,Lym,3 h,74%
same,MCH,3 h,20.6 pg
same,MCHC,3 h,32.9%
same,MCV,3 h,62.8 fL
same,Mono,3 h,2%
same,Neu,3 h,22.2%
same,PT,3 h,16.3 s
same,Plat,3 h,121.5 x10_4/uL
same,RBC,3 h,640.8 x10_4/ul
same,Ret,3 h,7.2%
same,WBC,3 h,60.8 x10_2/uL
same,KIDNEY_L,3 h,0.8 g
same,KIDNEY_R,3 h,0.9 g
same,KIDNEY_TOTAL,3 h,1.7 g
same,LIVER,3 h,8 g
same,A/G,3 h,1.2
same,ALP,3 h,1601.8 IU/L
same,ALT,3 h,54.6 IU/L
same,AST,3 h,82.2 IU/L
same,BUN,3 h,10.8 mg/dL
same,CRE,3 h,0.1 mg/dL
same,Ca,3 h,10.3 mg/dL
same,Cl,3 h,106.6 meq/L
same,DBIL,3 h,0.002 mg/dL
same,GLC,3 h,185 mg/dL
same,IP,3 h,8.3 mg/dL
same,K,3 h,4.3 meq/L
same,LDH,3 h,258.8 IU/L
same,Na,3 h,142.4 meq/L
same,PL,3 h,121.4 mg/dL
same,RALB,3 h,2.9 g/dL
same,TBIL,3 h,0.012 mg/dL
same,TC,3 h,69.8 mg/dL
same,TG,3 h,36 mg/dL
same,TP,3 h,5.4 g/dL
same,gamma-GTP,3 h,1 IU/L
same,TERMINAL_BW,6 h,183.8 g
same,APTT,6 h,21.3 s
same,Bas,6 h,0%
same,Eos,6 h,0.4%
same,Fbg,6 h,282.2 mg/dL
same,Hb,6 h,13.1 g/dL
same,Ht,6 h,39.5%
same,Lym,6 h,76%
same,MCH,6 h,21.6 pg
same,MCHC,6 h,33.3%
same,MCV,6 h,64.8 fL
same,Mono,6 h,2.4%
same,Neu,6 h,20.6%
same,PT,6 h,16.6 s
same,Plat,6 h,120.5 x10_4/uL
same,RBC,6 h,610 x10_4/ul
same,Ret,6 h,8.4%
same,WBC,6 h,73.4 x10_2/uL
same,KIDNEY_L,6 h,0.8 g
same,KIDNEY_R,6 h,0.8 g
same,KIDNEY_TOTAL,6 h,1.7 g
same,LIVER,6 h,7.5 g
same,A/G,6 h,1.1
same,ALP,6 h,1538 IU/L
same,ALT,6 h,51.2 IU/L
same,AST,6 h,90.2 IU/L
same,BUN,6 h,14.6 mg/dL
same,CRE,6 h,0.2 mg/dL
same,Ca,6 h,10.5 mg/dL
same,Cl,6 h,107.4 meq/L
same,DBIL,6 h,0.004 mg/dL
same,GLC,6 h,170.2 mg/dL
same,IP,6 h,9.4 mg/dL
same,K,6 h,4.5 meq/L
same,LDH,6 h,259.2 IU/L
same,Na,6 h,141.8 meq/L
same,PL,6 h,110 mg/dL
same,RALB,6 h,2.8 g/dL
same,TBIL,6 h,0.02 mg/dL
same,TC,6 h,64.8 mg/dL
same,TG,6 h,33.4 mg/dL
same,TP,6 h,5.2 g/dL
same,gamma-GTP,6 h,1 IU/L

# — ChEMBL document CHEMBL3885861, “Open TG-GATES”
